Measurements published in patent publication US5959145A, “Fatty acid analog enzyme substrates” (priority 1993, dated 1999).

Test system: wheat germ NMT
Assay: in vitro myristoylation assay with partially purified wheat germ NMT
Format: biochemical
Settings: fatty acid or analog at 5 μM, peptide varied; read-out: Km of peptide substrate Gly-Asn-Ala-Ala-Ser-[125I]Tyr-Arg-Arg
Procedure: Myristoyl CoA and fatty acid analog CoA were generated by incubation of the fatty acid or analog with CoA, ATP and CoA ligase. This reaction mixture was added to wheat germ NMT and Gly-Asn-Ala-Ala-Ser- [^125 I]Tyr-Arg-Arg in the presence of 0.03% Triton® X-100. Reaction products were characterized by reverse phase HPLC and gamma counting.
The invention is illustrated in greater detail in the following Examples 1 to 15 by the synthesis and testing of representative compounds of the invention as myristoylating enzyme substrates. Accordingly, the invention is first illustrated in Examples 1 to 5 by the chemical synthesis of a sulfur-containing analog of myristic acid, namely 11-(ethylthio)undecanoicacid, CH3 CH2 --S--(CH2)10 COOH, which is then tested in vitro as a wheat germ NMT substrate. Wheat germ NMT is a protein similar to yeast NMT. The purity and chemical identity of the synthesized compound were examined using ^1 H and ^13 C NMR as well as mass spectroscopy. The assay that was used to characterize the substrate specificity of wheat germ NMT measures the rate of attachment of a radiolabelled fatty acid to an unlabelled peptide. The fatty acid analog synthesized was nonradioactive.
Characterization of Partially Purified Wheat Germ NMT--Assays for NMT activity were performed using a procedure detailed previously by Towler and Glaser, Proc. Natl. Acad. Sci. USA 83, 2812-2816 (1986). Briefly, the in vitro assay measures the transfer of radiolabelled fatty acid from acyl CoA to a synthetic peptide substrate. The acylpeptide product is identified by reverse phase HPLC. Time and enzyme dependence were evaluated by varying the reaction time or the enzyme concentration. […] Fatty acid specificity was examined essentially as described by Towler et al., J. Biol. Chem. 262, 1030-1036 (1987), except that the peptide Gly-Ser-Ser-Lys-Ser-Lys-Pro-Lys rather than Gly-Asn-Ala-Ala-Ala-Ala-Arg-Arg was used to compare palmitate and myristate utilization by wheat germ NMT. This was necessary because of the presence of a large, peptide-independent peak which co-eluted with a palmitoyl-Gly-Asn-Ala-Ala-Ala-Ala-Arg-Arg standard. [^3 H]Palmitate and [^3 H]myristate were used in this comparison. [^14 C]fatty acids were used to compare C-10, C-12 and C-14 chain lengths. Fatty acyl CoA concentrations in these assays were determined by a modification of the method of Hosaka et al., Methods Enzymol. 71, 325-333 (1981).
Characterization of the Fatty Acid Analog--Gly-Asn-Ala-Ala-Ser-[^125 I]Tyr-Arg-Arg as prepared in Example 2, above, was tested in an in vitro myristoylation system which was modified from that used with radiolabelled fatty acids. […] 20-fold more wheat germ NMT (480-fold purified as in Example 3, above) was used for these assays than for assays which employed [^3 H] myristate. […] Double reciprocal plots were generated for the iodinated peptide with both myristic acid and the sulfur analog by altering the peptide concentration in the presence of a constant amount of fatty acid or analog. […] The assays contained 0.03% Triton X-100 to maintain the solubility of the fatty acids.

## CCCCCCCCCCCCCC(=O)O [myristic acid, reference compound]
  Km: 3 µM
